Structures can show the parent of a compound that is named as a salt.
Molecular target: sweet almond β-glucosidase
Assay: droplet absorbance assay of 4-nitrophenyl glucopyranoside hydrolysis ([…] nm); IC50 […] converted to Ki by Cheng-Prusoff
Type: biochemical, Prunus dulcis

Ki: ~36 µM
SMILES: OC[C@H]1NC[C@H](O)[C@@H](O)[C@@H]1O [DNM, 1-deoxynojirimycin hydrochloride]

Source: PMC3715888, “A Fully Unsupervised Compartment-on-Demand Platform for Precise Nanoliter Assays of Time-Dependent Steady-State Enzyme Kinetics and Inhibition” (Analytical Chemistry, 2013)
